Test system: HeLa cells
Assay: FACS analysis of the cell cycle (propidium iodide DNA content)
Type: cell-based, human
Details: 1 μM nocodazole, 24 h after treatment
Procedure: HeLa human cervical carcinoma cell line, the human breast cancer cell line MCF7, and the human colorectal carcinoma cell line SW480 were maintained in Dulbecco's Modified Eagle's medium (DMEM, PAA, Pasching Austria). The colorectal cell line HT29 was cultured in McCoy's 5A medium (PAA, Pasching, Austria). DMEM medium was supplemented with 10% fetal calf serum, sodium pyruvate, non-essential amino acids, penicillin and streptomycin, McCoy's 5A medium was supplemented with 10% fetal calf serum, penicillin and streptomycin. All cell lines were cultured at 37° C. in a 5% CO2 humidified atmosphere. Further, fluorescent activated cell sorting (FACS) was used successfully to analyze the cell cycle and mitotic arrest under the influence of indoloquinolizines. HeLa cells were fixed and stained for FACS analysis 24 h after compound treatment. Cells were trypsinized and combined with any floating cells, pelleted, and resuspended in 1 ml PBS. Ice cold ethanol (70%) was added, and samples were incubated at −20° C. until analysis. After fixation the cells were pelleted, resuspended in 500 μl staining solution (50 μg/ml propidium iodide, 0.1 mg/ml RNase A, 0.05% Triton X-100) and incubated for 40 min at 37° C. 3 ml PBS were added; the cells were pelleted again and resuspended in 500 μl PBS. The DNA content was measured with a Becton Dickinson LSRII and analyzed with FlowJo 7.5 software. The cell cycle of compound treated HeLa cells was analyzed by fluorescence activated cell sorting (FIG. 1). […] A similar distribution is given in (−)-1-01 treated cells (FIGS. 1c and 1d); here 9% are in G1 and 38% in G2/M phase (25 μM) respectively; 8% in G1 and 40% in G2/M phase (50 μM). This means that the mitotic index is increased by more than two fold (from 0.16 to 0.38 respectively 0.40), indicating a mitotic arrest after compound treatment.

| Compound | cells in G1 phase | cells in G2/M phase |
| --- | --- | --- |
| COC(=O)Nc1nc2ccc(C(=O)c3cccs3)cc2[nH]1 [nocodazole, reference compound] | 4% | 40% |

Test system: all cell lines but Saos2
Assay: Apo-ONE homogeneous caspase-3/7 assay (apoptosis), summary statement
Type: cell-based
Details: all cell lines but Saos2, 42 h
Procedure: HeLa human cervical carcinoma cell line, the human breast cancer cell line MCF7, the African green monkey kidney cell line BS-C-1 and the human colorectal carcinoma cell lines HCT116 and SW480 were maintained in Dulbecco's Modified Eagle's medium (DMEM, PAA, Pasching Austria). The colorectal cell line HT29 was cultured in McCoy's 5A medium (PAA, Pasching, Austria). The prostate carcinoma cells PC3 and the osteosarcoma cells Saos2 were cultured in RPMI medium (PAA, Pasching Austria). All media were supplemented with 10% fetal calf serum, L-glutamine, penicillin and streptomycin. All cell lines were maintained at 37° C. in a 5% CO2 humidified atmosphere.
Therefore we measured the caspase-3/7 activity in different cell lines with the Apo-ONE® homogeneous caspase-3/7 assay.
Caspase-3/7 activities were determined using the Apo-ONE® homogeneous caspase-3/7 assay (Promega, Mannheim Germany) according to the manufacturer's protocol. Briefly, cells were plated in quadruplicates in 384-well cell culture plate. After 24 hours cells were exposed for 42 hours to the compounds at different concentrations. Control cells were treated with 0.5% DMSO or staurosporine (STS). Subsequently cells were lysed with a lysis buffer containing the caspase-3/7 substrate Z-DEVD-R110 and were incubated at room temperature until further analysis. The fluorescence was detected with the TECAN Inifinite® M200 plate reader at excitation/emission wavelength 485/520 nm. The blank value was subtracted from each value and the relative caspase-3/7 activity was calculated compared to the DMSO treated cells.
These findings correlate with our results from the cell viability assays for these indoloquinolizine.

| Compound | impact on the apoptosis |
| --- | --- |
| COC(=O)C1=CC(C(=O)c2ccccc2O)=CN2CCc3c([nH]c4ccc(OC)cc34)C12C(=O)OC (single isomer, unassigned; (+)) [(+)-1-04, Dimethyl-3-(2-hydroxybenzoyl)-9-methoxy-6,7,12,12b-tetrahydro-indolo[2,3-a]quinolizine-1,12b-dicarboxylate] | did not have any impact on the apoptosis |
| COC(=O)C1=CC(C(=O)c2ccccc2O)=CN2CCc3c([nH]c4ccccc34)C12C(=O)OC (single isomer, unassigned; (+)) [(+)-1-01, Dimethyl-3-(2-hydroxybenzoyl)-6,7,12,12b-tetrahydroindolo[2,3a]quinolizine-1,12b-dicarboxylate] | did not have any impact on the apoptosis |

Test system: not given
Assay: not given
Details: not given

| Compound | melting point |
| --- | --- |
| COC(=O)C1=CC(C(=O)c2ccccc2O)=CN2CCc3c([nH]c4ccc(O)cc34)C12C(=O)OC (centres unmarked) | 180 °C (dec.) |
| COC(=O)C1=CC(C(=O)c2cc(Cl)ccc2O)=CN2CCc3c([nH]c4ccccc34)C12C(=O)OC (centres unmarked) | 232 °C (dec.) |
| CCOC(=O)C1=CC(C(=O)c2cc(Br)ccc2O)=CN2CCc3c([nH]c4ccc(OC)cc34)C12C(=O)OCC (centres unmarked) [Compound 1-22, Diethyl-3-(5-bromo-2-hydroxybenzoyl)-9-methoxy-6,7,12,12b-tetrahydroindolo[2,3-a]quinolizine-1,12b-dicarboxylate] | 225 °C |
| COC(=O)C1=CC(C(=O)c2ccccc2O)=CN2[C@H](C(=O)OC)Cc3c([nH]c4ccccc34)C12C(=O)OC (stereo partly drawn) [Compound 1-28, (6S)-trimethyl 3-(2-hydroxybenzoyl)-6,7,12,12b-tetrahydroindolo[2,3-a]quinolizine-1,6,12b-tricarboxylate] | 244 °C (dec.) |
| COC(=O)C1=CC(C(=O)c2ccccc2OC)=CN2CCc3c([nH]c4ccccc34)C12C(=O)OC (centres unmarked) | 261 °C (dec.) |
| COC(=O)C1=CC(C(=O)c2ccccc2O)=CN2CCc3c([nH]c4ccc(Br)cc34)C12C(=O)OC (centres unmarked) | 182 °C |
| COC(=O)C1=CC(C(=O)c2ccc(OCc3ccccc3)c(C)c2O)=CN2CCc3c([nH]c4ccccc34)C12C(=O)OC (centres unmarked) [Compound 1-23, Dimethyl 3-(4-(benzyloxy)-2-hydroxy-3-methylbenzoyl)-6,7,12,12b-tetrahydroindolo[2,3-a]quinolizine-1,12b-dicarboxylate] | 216 °C |
| COC(=O)C1=CC(C(=O)c2ccccc2O)=CN2CCc3c([nH]c4ccc(C)cc34)C12C(=O)OC (centres unmarked) | 175 °C |
| CCOC(=O)C1=CC(C(=O)c2cc(C)ccc2O)=CN2CCc3c([nH]c4ccc(OC)cc34)C12C(=O)OCC (centres unmarked) [Compound 1-16, Diethyl-3-(2-hydroxy-5-methylbenzoyl)-9-methoxy-6,7,12,12b-tetrahydroindolo[2,3-a]quinolizine-1,12b-dicarboxylate] | 228 °C |
| COC(=O)C1=CC(C(=O)c2cc(Br)cc(Br)c2O)=CN2CCc3c([nH]c4ccccc34)C12C(=O)OC (centres unmarked) | 131 °C |
| CCOC(=O)C1=CC(C(=O)c2ccccc2O)=CN2CCc3c([nH]c4ccccc34)C12C(=O)OCC (centres unmarked) | 209 °C |
| COC(=O)C1=CC(C(=O)c2ccccc2O)=CN2CCc3c([nH]c4ccccc34)C12C(=O)OC (centres unmarked) | 258 °C (dec.) |
| CCOC(=O)C1=CC(C(=O)c2cc(Cl)ccc2O)=CN2CCc3c([nH]c4ccc(OC)cc34)C12C(=O)OCC (centres unmarked) [Compound 1-20, Diethyl-3-(5-chloro-2-hydroxybenzoyl)-9-methoxy-6,7,12,12b-tetrahydroindolo[2,3-a]quinolizine-1,12b-dicarboxylate] | 230 °C |
| CCOC(=O)C1=CC(C(=O)c2cc(Cl)c(C)cc2O)=CN2CCc3c([nH]c4ccccc34)C12C(=O)OCC (centres unmarked) [Compound 1-18, Diethyl-3-(5-chloro-2-hydroxy-4-methylbenzoyl)-6,7,12,12b-tetrahydroindolo[2,3-a]quinolizine-1,12b-dicarboxylate] | 196 °C |
| CC(C)(C)OC(=O)C1=CC(C(=O)c2ccccc2O)=CN2CCc3c([nH]c4ccccc34)C12C(=O)OC(C)(C)C (centres unmarked) [Compound 1-54, di-tert-butyl 3-(2-hydroxybenzoyl)-6,7,12,12b-tetrahydroindolo[2,3-a]quinolizine-1,12b-dicarboxylate] | 237 °C (dec.) |
| COC(=O)C1=CC(C(=O)c2cc(Br)ccc2O)=CN2CCc3c([nH]c4ccccc34)C12C(=O)OC (centres unmarked) | 220 °C (dec.) |
| CCOC(=O)C1=CC(C(=O)c2cc(C)ccc2O)=CN2CCc3c([nH]c4ccccc34)C12C(=O)OCC (centres unmarked) [Compound 1-03, Diethyl-3-(2-hydroxy-5-methylbenzoyl)-6,7,12,12b-tetrahydroindolo-[2,3-a]quinolizine-1,12b-dicarboxylate] | 208 °C |
| CCOC(=O)C1=CC(C(=O)c2cc(Cl)ccc2O)=CN2CCc3c([nH]c4ccccc34)C12C(=O)OCC (centres unmarked) [Compound 1-19, Diethyl-3-(5-chloro-2-hydroxybenzoyl)-6,7,12,12b-tetrahydro-indolo[2,3-a]quinolizine-1,12b-dicarboxylate] | 216 °C |
| CCOC(=O)C1=CC(C(=O)c2ccccc2O)=CN2CCc3c([nH]c4ccc(OC)cc34)C12C(=O)OCC (centres unmarked) [Compound 1-13, Diethyl-3-(2-hydroxybenzoyl)-9-methoxy-6,7,12,12b-tetrahydro-indolo[2,3-a]quinolizine-1,12b-dicarboxylate] | 212 °C |
| CCOC(=O)C1=CC(C(=O)c2cc(Br)ccc2O)=CN2CCc3c([nH]c4ccccc34)C12C(=O)OCC (centres unmarked) [Compound 1-14, Diethyl-3-(5-bromo-2-hydroxybenzoyl)-6,7,12,12b-tetrahydro-indolo[2,3-a]quinolizine-1,12b-dicarboxylate] | 215 °C |
| COC(=O)C1=CC(C(=O)c2cc(Cl)cc(Cl)c2O)=CN2CCc3c([nH]c4ccccc34)C12C(=O)OC (centres unmarked) | 238.2 °C (dec.) |
| COC(=O)C1=CC(C(=O)c2cc(Br)ccc2O)=CN2CCc3c([nH]c4ccc(OC)cc34)C12C(=O)OC (centres unmarked) [Compound 1-05, Dimethyl-3-(5-bromo-2-hydroxybenzoyl)-9-methoxy-6,7,12,12b-tetrahydro-indolo[2,3-a]quinolizine-1,12b-dicarboxylate] | 197 °C (dec.) |
| COC(=O)C1=CC(C(=O)c2cc(C)ccc2O)=CN2CCc3c([nH]c4ccccc34)C12C(=O)OC (centres unmarked) | 197 °C |
| COC(=O)C1=CC(C(=O)c2ccccc2O)=CN2CCc3c([nH]c4ccc(OC)cc34)C12C(=O)OC (centres unmarked) | 163 °C (dec.) |
| COC(=O)C1=CC(C(=O)c2c(O)cccc2OC)=CN2CCc3c([nH]c4ccccc34)C12C(=O)OC (centres unmarked) | 237 °C (dec.) |
